Results on eight compounds are retold here after patent US20140357602A1, “Combination Therapies For Treating Metabolic Disorders” (Genmedica Therapeutics SL, priority 2009, published 2014).

One experiment relates to INS-1E β-cells. Kind of experiment: In vitro INS-1E β-cell assay (apoptosis, caspase 3/7). The format is cell-based. The settings on record: apoptosis promoted by high (11 mM) glucose and high (0.4 mM) palmitate. The protocol: INS-1E β-cells were cultivated in the presence of a high glucose concentration (11 mM) and a high palmitate concentration (0.4 mM bound to BSA 0.5%) in order to promote glucotoxicity and lipotoxicity. […] The capacity of protecting β-cells with different combinations of antioxydants and anti-inflammatory agents were tested using these stressing conditions that reflect the pathophysiological conditions implicated in pancreatic dysfunction related to diabetes onset. INS-1E cells were seeded at a density of 80,000 cells/cm^2 in 96 wells plates 4 days before the beginning of the treatment. At 60-80% of confluence, cells were fasted with RPMI 5 mM of glucose+FBS 10%. […] The day after, fasting medium was changed by the stressing medium (glucose […]+palmitate 0.4 mM bound to BSA 0.5%). Medium, and tested agents when present, were changed every 24 h. 48 h after the addition of the stressing medium, apoptosis was measured with Apo-One Homogeneous Caspase 3/7 Assay (Promega) which determines the activity of caspase 3 and 7. […] Resulting fluorescence was read at 485/530 (excitation/emission wave length). The background apoptosis, in absence of stressing condition, was determined with INS 1E-cells cultured in the presence of fasting medium (RPMI 5 mM glucose+FBS 10%). […]

The next experiment has as its system islets. The settings on record: low-dose streptozotocin-induced insulitis; cited from earlier work.
Experiment [1] relates to alloxan-treated cd-1 mice. Kind of experiment: Alloxan induced beta cell destruction model (in vivo β-cell protection). As to the method: In Vivo β-Cell Protection Model β-cell destruction was induced in cd-1 male mice after 3 hours of fasting by a single intra-peritoneal (i.p.) injection of a freshly prepared solution of alloxan 200 mg/kg (Sigma-Aldrich, San Luis, Mo.) that was dissolved in NaCl 0.9%. One single intra-peritoneal drug administration was given one hour before the Alloxan administration. […] At the end of the treatment, day 4, animals were sacrificed and the plasma collected and kept at −20° C. until used.
Pancreatic beta cell destruction was induced in the cd-1 mice after 3 hours of fasting by a single intraperitoneal injection of a freshly prepared solution of alloxan 200 mg/kg (Sigma-Aldrich, San Luis, Mo.) that was dissolved in NaCl 0.9%. Single drug intraperitoneal administration was 1 hour before the alloxan administration. […] The control group was injected with the vehicle, PBS at pH 7.4. Glycemia was measured on arterio-venous blood collected from the tail vessels between 9:00 and 10:00 am on day 0 (day of drug administration) to day 4.

The test system of experiment [2] is type II diabetes patients. The following applies: cited from earlier work.
[3] abbreviates: type II diabetes patients, 4 grams/day.

With `Cc1c(C)c2c(c(C)c1O)CC[C@@](C)(CCC[C@H](C)CCC[C@H](C)CCCC(C)C)O2` [α-tocopherol], in the experiment on INS-1E β-cells, the “Combination concentrations (concentrations that reduced apoptosis)” value is recorded as 1 mM. `NC(=O)c1cccnc1` [nicotinamide]: the “protection of islets from immune destruction” value (from here on “protection of islets”) in the experiment with islets is “partially protect”.

Take `O=C([O-])c1ccccc1O.[Na+]` [Salicylate, Sodium Salicylate]: the glycemia entry was “significant reductions of glycemia were observed only at the highest administered concentrations” in experiment [1] (FIG. 3, salicylate alone i.p. 0.38, 0.75 and 1.5 mmol/kg); “not to affect glycemia” in experiment [1] (sodium salicylate alone 0.38 mmol/kg i.p.); “statistically-significant reductions in glycemia” in experiment [1] (sodium salicylate alone 0.75 mmol/kg).

For `O=C(Oc1ccccc1C(=O)O)c1ccccc1O` [salsalate], in experiment [2] (setting [3]), the fasting glucose result is reported as “lowered” and the inflammation entry was “reduced”.

Consider `NCCS(=O)(=O)O` [Taurine], for which the “Combination concentrations (concentrations that reduced apoptosis)” value with INS-1E β-cells worked out at 3 mM.

Regarding `CC(=O)N[C@@H](CS)C(=O)O` [N-acetylcysteine], the glycemia result in experiment [1] (FIG. 3, NAC alone i.p. 0.38 and 0.75 mmol/kg) is “significant reductions of glycemia were observed only at the highest administered concentrations”; in experiment [1] (NAC alone 0.19 mmol/kg i.p.) it was “not to affect glycemia”; in experiment [1] (NAC alone 0.38 mmol/kg), “statistically-significant reductions in glycemia”. For the same compound, the insulinemia entry in experiment [1] (FIG. 3, NAC alone i.p., highest concentrations administered) was “significantly increased”. Further, the “protection of islets” value in the experiment on islets is recorded as “partially protect”. For the compound `CC(=O)N(O)CCCCCNC(=O)CCC(=O)N(O)CCCCCNC(=O)CCC(=O)N(O)CCCCCN` [desferrioxamine], the “protection of islets” value in the experiment on islets was “partially protect”. Turning to `CC(=O)Oc1ccccc1C(=O)O` [aspirin], the glucose levels result in experiment [2] (patients with diabetes, high dosage) is on record as “lower”.
